Data set [1] can be described thus: Solubilities of o,o'-bridged oligophenylenes in laser solvents at 21° C. The class given is physicochemical. The following applies: for Solubility: 21° C.; for Solubility compared with 2,2'-bifluorene: in solvents (Table I). An excerpt:
It is further discovered that when substituent X of the bridged biphenyl moiety is a carbon atom which is free of benzylic hydrogens, the laser dye is relatively less reactive and relatively more soluble. In other words, it has been realized that the absence of benzylic hydrogens from the bridged carbon substituent, that is, the carbon substituent that is bonded directly to the phenyl moieties to form the bridge, renders the organic laser dyes of the present invention less reactive and more soluble. In view of the present disadvantages concerning the solubility of organic laser dyes available hitherto, this is quite significant.

A short description of data set [2]: Fluorescence emission spectrum and Fluorescence Quantum Efficiency. It counts as physicochemical. The settings on record: for Fluorescence emission intensity, first peak / Fluorescence emission intensity, second peak / Fluorescence emission peak, first / Fluorescence emission peak, second: slits 2 nm. The source says: The fluorescence emission spectrum for the dye 9,9-dipropylfluorene as illustrated in FIG. 1 was detected on a Perkin-Elmer MPF-44A, the slits were set at 2 nm and the excitation light was at 265 nm. The Fluorescence Quantum Efficiency (FQE) was about the same as that of fluorene - 55%; and the fluorescence emission peaks at 306 nm(intensity 86) and […](intensity 67) were also similar to those of fluorene [the fluorescence emission spectrum for fluorene as illustrated in FIG. 5 was also detected on a Perkin-Elmer MPF-44A, the slits were set at 2 nm and the excitation light was at 265 nm and the fluorescence emission peaks for fluorene are at 303 nm(intensity 93) and 311 nm(intensity 73)].
This dye had two fluorescence peaks of almost equal intensity at 360 nm(intensity 33) and 378 nm(intensity 28) as illustrated in FIG. 2. […] The fluorescence emission spectrum of the dye 9,9,9',9'-tetrapropyl-2,2'-bifluorene was detected on a Perkin-Elmer MPF-44A, the slits were set at 2 nm and the excitation light was at 331 nm.
This dye had fluorescence peaks at 324 nm(intensity 90) and 338 nm(intensity 76) and a reported fluorescence quantum yield of 100% in cyclohexane as illustrated in FIG. 3. […] The fluorescence emission spectrum for the dye 3-phenyldibenzofuran as illustrated in FIG. 3 was detected on a Perkin-Elmer MPF-44A, the slits were set at 2 nm and the excitation light was at 301 nm.
The dye, 3,3'-bi(dibenzofuran), was prepared in accordance with the process disclosed in H.O. Wirth, G. Waese and W. Kern: Synthese Und Eigenschaften Von: Oxydo-p-oligophenylenen. Makromol. Chem. 86: 139(1965) which is incorporated herein in its entirety by reference, and was purified by extraction from Brockmann Activity I alumina with chloroform in an Ace-Kauffman column to give a white solid, mp 249.5°-250.5° C. (lit.mp 252.5° C.). This dye had two fluorescence peaks of almost equal intensity at 353 nm(intensity 47) and 369 nm(intensity 30) in cyclohexane as illustrated in FIG. 4.

The conditions of data set [3]: cyclohexane; reported; cited from earlier work.

SMILES strings stand for the structures. Converted amounts (≈) assume the structure as drawn. “And” between values parts separate entries of the source, which are not always exact repeats. Equal values may be shown once.

Consider `c1ccc(-c2ccc(-c3ccc(-c4ccccc4)cc3)cc2)cc1` [quaterphenyl, reference compound], for which the Solubility (as a rule, the dissolved amount per volume that the medium holds) in data set [1] (Toluene) was ~1.3 × 10^-3 M and ~0.4 g/l.
As for `c1ccc2c(c1)Cc1ccccc1-2` [fluorene, reference compound], the “Fluorescence Quantum Efficiency (FQE)” value in data set [2] came to 55%. For the same compound, in data set [2] (excitation 265 nm), the “Fluorescence emission intensity, first peak” value is listed as 93; the “Fluorescence emission intensity, second peak” value came out at 73; the “Fluorescence emission peak, first” value is on record as 303 nm; the “Fluorescence emission peak, second” value was 311 nm.
Consider `c1ccc2c(c1)oc1cc(-c3ccc4c(c3)oc3ccccc34)ccc12` [3,3'-bi(dibenzofuran)], for which the Solubility is 1.0 × 10^-2 M and 2.5 g/l in data set [1] (95% ethanol); 6.3 × 10^-5 M and 0.021 g/l in data set [1] (100% ethanol); 2.5 × 10^-3 M and 0.84 g/l in data set [1] (DMF); 2.1 × 10^-5 M and 0.007 g/l in data set [1] (Methanol); 2.4 × 10^-3 M and 0.8 g/l in data set [1] (Toluene); 9.0 × 10^-5 M and 0.030 g/l in data set [1] (cyclohexane). Further, the Solubility in data set [1] (dioxane) is 1.3 × 10^-3 M and 0.43 g/l. For the same compound, in data set [1], the “Solubility compared with 2,2'-bifluorene” value is listed as “greater than that of 2,2'-bifluorene”. For the same compound, the “Fluorescence emission spectrum compared with dye of Example 2” value in data set [2] was “almost superimposable on that of the dye discussed in Example 2”. In addition, the “Fluorescence emission intensity, first peak” value in data set [2] (excitation 323 nm, cyclohexane) came out at 47. Besides, the “Fluorescence emission intensity, second peak” value in data set [2] (excitation 323 nm, cyclohexane) came to 30. Also, the “Fluorescence emission peak, first” value in data set [2] (excitation 323 nm, cyclohexane) worked out at 353 nm. Also, in data set [2] (excitation 323 nm, cyclohexane), the “Fluorescence emission peak, second” value was determined as 369 nm.
Consider `CCn1c2ccccc2c2ccc(-c3ccc4c5ccccc5n(CC)c4c3)cc21` [9,9'-diethyl-2,2'-bicarbazole], for which the “Violet fluorescence compared with compounds of Examples 2 and 4” value in data set [2] (in alcohols) is “brighter violet fluorescence in alcohols than the compounds of Examples 2 and 4”.
Take `c1ccc2c(c1)Cc1cc(-c3ccc4c(c3)Cc3ccccc3-4)ccc1-2` [2,2'-bifluorene]: the Solubility in data set [1] (1,2-dichloroethane) is 1.0 × 10^-3 M and 0.33 g/l; in data set [1] (95% ethanol), 0.4 g/L (≈ 1210 µM); in data set [1] (100% ethanol) it was 2.3 × 10^-5 M and 0.0077 g/l; in data set [1] (Toluene), 1.3 × 10^-3 M and 0.4 g/l; in data set [1] (cyclohexane), 3.0 × 10^-5 M and 0.01 g/l.
As for `CCCC1(CCC)c2ccccc2-c2ccccc21` [9,9-dipropylfluorene], the “Fluorescence Quantum Efficiency (FQE)” value in data set [2] is approximately 55%. In data set [2] (excitation 265 nm), the “Fluorescence emission intensity, first peak” value is given as 86; the “Fluorescence emission intensity, second peak” value turned out to be 67; the “Fluorescence emission peak, first” value is on record as 306 nm.
For `c1ccc(-c2ccc3c(c2)oc2ccccc23)cc1` [3-phenyldibenzofuran], the Solubility in data set [1] (50% ethanol) was 8.4 × 10^-3 M and 2.0 g/l; in data set [1] (95% ethanol), 1.1 × 10^-2 M and 2.7 g/l; in data set [1] (100% ethanol), 1.6 × 10^-2 M and 3.9 g/l; in data set [1] (Methanol), 1.2 × 10^-2 M and 2.9 g/l; in data set [1] (cyclohexane) it was > 2.44 g/l and > 1.0 × 10^-2 M. Further, the “Solubility compared with p-terphenyl” value in data set [1] (in all cases (See Table I)) is given as “much greater than that of p-terphenyl”; in data set [1] (methanol, 50% ethanol, 95% ethanol and absolute ethanol), “much more soluble”. Besides, the “Fluorescence emission intensity, first peak” value in data set [2] (excitation 301 nm, cyclohexane) is 90. Besides, in data set [2] (excitation 301 nm, cyclohexane), the “Fluorescence emission intensity, second peak” value is 76. Besides, in data set [2] (excitation 301 nm, cyclohexane), the “Fluorescence emission peak, first” value is 324 nm. In addition, the “Fluorescence emission peak, second” value in data set [2] (excitation 301 nm, cyclohexane) amounted to 338 nm. Further, the “FQE in methanol compared with cyclohexane” value in data set [2] (methanol) is “the same in methanol as in cyclohexane”. For the same compound, the Fluorescence quantum yield in data set [3] was 100%.
Regarding `CCCC1(CCC)c2ccccc2-c2ccc(-c3ccc4c(c3)C(CCC)(CCC)c3ccccc3-4)cc21` [9,9,9',9'-tetrapropyl-2,2'-bifluorene], the Solubility in data set [1] (100% ethanol) is 7.8 × 10^-4 M and 0.39 g/l; in data set [1] (Methanol), 3.4 × 10^-4 M and 0.17 g/l; in data set [1] (cyclohexane), 2.0 × 10^-2 M and 10 g/l; in data set [1] (dioxane), 6.5 × 10^-3 M and 3.2 g/l. For the same compound, in data set [1], the “Solubility compared with 2,2'-bifluorene” value was “more soluble than 2,2'-bifluorene”. The “Fluorescence emission intensity, first peak” value in data set [2] (excitation 331 nm) is listed as 33. In data set [2] (excitation 331 nm), the “Fluorescence emission intensity, second peak” value was found to be 28. Besides, the “Fluorescence emission peak, first” value in data set [2] (excitation 331 nm) is 360 nm. In data set [2] (excitation 331 nm), the “Fluorescence emission peak, second” value stood at 378 nm.
